This note sets out measurements from paper PMC9916883, “Betaine- and L-Carnitine-Based Ionic Liquids as Solubilising and Stabilising Agents for the Formulation of Antimicrobial Eye Drops Containing Diacerein” (International Journal of Molecular Sciences, 2023).

The structures appear in SMILES notation. Converted amounts (≈) assume the structure as drawn. “Also recorded” adds a separate entry of the source.

For data set [1], the system named is P. aeruginosa ATCC 27853. Briefly: Killing assay. The class given is cell-based, Pseudomonas aeruginosa. Particulars: 3 h incubation in 5% TSB; DIA 0.34 M, ILs 0.27 M. On the procedure:
(§1) To this end, the bacterial strains were grown in TSB until the exponential phase, and approximately 5 × 10^4 CFU/mL-contained in 10 μL-was added to 5 μL of TSB, 35 μL of water, and 50 μL of one of the following solutions corresponding to the eye drop compositions tested in vivo: Bet6 or Carn6 with 0.27 M or 0.34 M DIA, plain DIA (0.34 M) solution, or plain Bet6/plain Carn6, both at 0.27 M. All solutions were prepared in CB. The samples were incubated at 37 °C with shaking for 3 h. A sample containing 0.6% DMSO (corresponding to the highest concentration of DMSO tested) was used as a control. Following incubation, the samples were diluted 10-fold in LB and plated on tryptone soy agar (TSA, Oxoid) to determine the number of CFU. Bactericidal activity was defined as a reduction of at least 3 Log10 in the number of viable bacteria as compared to the inoculum.

Data set [2] relates to S. aureus (clinical isolate W4). The experiment in a line: MIC determination (microdilution). The class given is cell-based, Staphylococcus aureus. How it is done:
A clinical isolate of S. aureus (W4) and the reference strain of P. aeruginosa ATCC 27853 were used in the study. For the preparation of stock cultures, bacterial strains were grown in Luria–Bertani broth (LB, Oxoid, Basingstoke, Hampshire, UK) until the late-log phase, subdivided into aliquots, and kept frozen at −80 °C until use. Identification and susceptibility testing of the S. aureus W4 strain were performed using MALDI-TOF (Bruker Daltonics, Bremen, Germany) and the BD Phoenix susceptibility testing system (BD, Milan, Italy), respectively.
The susceptibility of the bacterial strains to each of the tested compounds was assessed in terms of MIC values according to the standard microdilution method (Clinical and Laboratory Standards Institute–CLSI, 2018), with some modifications. Briefly, the bacteria were grown in LB broth until the exponential growth phase and then diluted in the same medium to reach a final density of 5 × 10^6 CFU/mL. A volume of 10 μL of the bacterial suspensions was added to 90 μL of LB in a 96-well plate in the absence (viability control) or presence of the test compound at different concentrations.

In data set [3] the test system is S. aureus W4. The experiment in a line: Killing assay. It is filed as cell-based, Staphylococcus aureus. Particulars: 3 h incubation in 5% TSB; DIA 0.34 M, ILs 0.27 M. How it is done: as §1
Data set [4] has as its system S. aureus W4. Briefly: Biofilm inhibition assay (crystal violet). The class given is cell-based, Staphylococcus aureus. The conditions noted are these: any of the concentrations tested (3.12, 6.25, 12.5 μg/mL). On the procedure: (§2) After overnight growth in LB, cultures of P. aeruginosa ATCC 27853 and S. aureus W4 were diluted 1:100 in LB or in 50% tryptone soy broth (TSB, Oxoid) supplemented with 0.25% glucose (Sigma), respectively. The bacterial suspensions were dispensed into flat-bottomed polystyrene 96-well microplates (Corning Costar, Lowell, MA, USA) in the presence of sub-MIC concentrations of Rhe and DIA (3.12, 6.25, and 12.5 μg/mL). A sample containing 0.8 DMSO % (corresponding to the highest concentration of DMSO tested) was used as a control. The microplates were incubated statically at 37 °C for 24 h, and the biofilm biomass was estimated by CV (Sigma-Aldrich) staining assay, as previously described.

In data set [5] the test system is BALB/3T3 clone A31 fibroblast cells. Briefly: Cytotoxicity screening (WST-1). It is filed as cell-based, murine. Particulars: Mus musculus, 4 h incubation, read-out: IC50 of cell viability. On the procedure:
BALB/3T3 clone A31 fibroblast cells were grown in Dulbecco’s Modified Eagle Medium (DMEM), supplemented with 2 mM L-glutamine, 1% penicillin/streptomycin, and 10% bovine calf serum. Cells were grown in a CO2 incubator (Heracell 150i series) at 37 °C and 5% CO2, with cells sub-cultured at 80–90% confluency. The cell monolayers were rinsed with PBS and treated with trypsin–EDTA to detach the cells before their resuspension in fresh media. A subconfluent monolayer of BALB/3T3 clone A31 fibroblast cells was trypsinised, centrifuged at 1000 rpm for 5 min, resuspended in growth medium, and counted.
A cytotoxicity screening was carried out for both ILs (range […]), as well as DIA and Rhe (0.5–200 mg/mL). Briefly, BALB/3T3 clone A31 fibroblast cells were seeded in each well of 96-well plates at a seeding density of 6 × 10^3 cells/well for 24 h, until 60–70% confluence was reached. After 24 h, the medium was then removed from each well and replaced with DMEM containing the samples.
After 4 h of incubation, the media were removed, replaced with fresh medium containing 10% WST-1 reagent solution, and maintained for 4 h at 37° C with 5% CO2. Afterwards, formazan dye absorbance was quantified at 450 nm with the reference wavelength at 655 nm by using a multilabel reader (BioTek 800/TS, Thermo Scientific).

Data set [6] relates to P. aeruginosa ATCC 27853. Briefly: Biofilm inhibition assay (crystal violet). It is filed as cell-based, Pseudomonas aeruginosa. The conditions noted are these: any of the concentrations tested (3.12, 6.25, 12.5 μg/mL). On the procedure: as §2
Data set [7] can be described thus: Modified Draize test (ocular irritation). Particulars: single eye drop instillation, rabbit; observed 0.5-6 h. The class given is in vivo, New Zealand albino rabbits. On the procedure:
Male New Zealand albino rabbits weighing approximately 2.6-3 Kg, kept in standard housing conditions, were used for in vivo studies. The animals were treated as prescribed in the guidelines of the European Community Council Directive 2010/63. The animal protocol was approved by the Italian Ministry of University and Research (authorisation n. 192/2019-PR). The eye drops were prepared in CB (200 mOsm/kg). […] (588 mOsm/kg). A suspension of plain DIA (0.34 M) in CB was used as a reference sample (230 mOsm/kg). The samples' osmolality was checked using a Roebling osmometer (calibrated with NaCl 300 mOsm/kg H2O). To assess the irritation of the rabbits' eyes after instillation of the eye drops under study, a modified Draize test was performed, following the procedure previously described in [50]. This irritation test was conducted using a 0 (absence) to 3 (maximum) clinical rating scale for lachrymation, oedema, and conjunctival redness. For each of the samples under study, the test was performed on three rabbits, through a single instillation of the eye drops (50 μL) per rabbit eye, while the untreated contralateral eye was used as a control. […] An overall irritation index (Iirr) was calculated by adding the total clinical evaluation scores for each observation time. A score of 2 or 3 in any category or an Iirr greater than 4 was considered an indicator of clinically significant irritation.

On to `CC(=O)Oc1cccc2c1C(=O)c1c(OC(C)=O)cc(C(=O)O)cc1C2=O` [DIA, diacerein], for which the bactericidal effect entry with P. aeruginosa ATCC 27853 [1] and in the data set on S. aureus W4 [3] was “no evident bactericidal effect” throughout. Besides, in data set [2] (Staphylococcus aureus, planktonic cells, 24 h, 37 °C), 50 µg/mL (≈ 136 µM) was the least that counted as inhibitory (MIC). Further, the antibacterial effect entry in data set [2] (in words (discussion)) is reported as “exert antibacterial effects”. In the data set with S. aureus W4 [4], the “biofilm formation (CV staining, OD 570 nm)” value is “no significant effects”. Also, in data set [5], the IC50 was 116 µg/mL (≈ 316 µM). The “biofilm formation (CV staining, OD 570 nm), difference vs control” value with P. aeruginosa ATCC 27853 [6] was “not statistically significant”. Further, the “ocular irritation signs (conjunctival redness, chemosis/oedema, secretion)” value in data set [7] is “modest redness of the conjunctiva and a slight conjunctival chemosis, but no secretion; also recorded: No redness, secretions, or conjunctival oedema”.
